According to patent US10035790B2, “RORγ modulators” (BRISTOL-MYERS SQUIBB COMPANY, priority 2012, dated 2018):

Each compound was assayed against T1, ligand binding domain of human RORγ (A262-S507) (Homo sapiens, UniProt P51449) (assay: General RORγ SPA binding assay (competition with [3H]25-hydroxycholesterol)). Details: IC50, RORγ SPA binding assay, inhibition of [3H]25-hydroxycholesterol binding.
T1 construct: made in house; host or cells: E. coli
T1 sequence (P51449 262-507): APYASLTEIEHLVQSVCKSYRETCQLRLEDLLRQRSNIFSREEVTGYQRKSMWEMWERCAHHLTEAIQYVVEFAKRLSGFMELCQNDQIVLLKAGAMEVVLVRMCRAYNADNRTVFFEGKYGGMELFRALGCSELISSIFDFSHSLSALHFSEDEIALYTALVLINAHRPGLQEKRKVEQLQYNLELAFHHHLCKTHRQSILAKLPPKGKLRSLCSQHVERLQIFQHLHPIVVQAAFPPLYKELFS
Method in brief: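 Step one: compound meets 50 nM nickel-purified, His-tagged protein from E. coli for 15 min at room temperature (PBS, 0.5% fatty acid free BSA). Step two: radioligand is added for another 15 min. Step three: SPA beads are added for 30 min before scintillation reading and IC50 fitting.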
Work on CC(O)(COc1ccnc(C(F)(F)F)n1)c1cnc(N)nc1C1CCN(C(=O)Oc2ccc(F)cc2)CC1 (stereo not shown) [Compound D50, 4-Fluorophenyl 4-[2-amino-5-(1-hydroxy-1-methyl-2-{[2-(trifluoromethyl)pyrimidin-4-yl]oxy}ethyl)pyrimidin-4-yl]piperidine-1-carboxylate] yielded an IC50 of 15 nM.

Same assay, conditions: RORγ SPA binding assay, inhibition of [3H]25-hydroxycholesterol binding; read-out: IC50
Work on COCC(C)(OCc1cc(C)cc(C)c1)c1cnc(C)nc1C1CCN(C(=O)Cc2c(F)cccc2F)CC1 (stereo not shown) [Compound E1, 2-(2,6-Difluorophenyl)-1-(4-(5-(2-(3,5-dimethylbenzyloxy)-1-methoxypropan-2-yl)-2-methylpyrimidin-4-yl)piperidin-1-yl)ethanone] yielded an IC50 of 6.3 nM. For CCOCC(C)(OCc1cc(C)cc(C)c1)c1cnc(C)nc1C1CCN(C(=O)Cc2c(F)cccc2F)CC1 (stereo not shown) [Compound E2, 2-(2,6-difluorophenyl)-1-(4-(5-(2-((3,5-dimethylbenzyl)oxy)-1-ethoxypropan-2-yl)-2-methylpyrimidin-4-yl)piperidin-1-yl)ethanone], the IC50 was 5.3 nM. For Cc1cc(C)cc(COC(C)(COCC(O)CO)c2cnc(C)nc2C2CCN(C(=O)Cc3c(F)cccc3F)CC2)c1 (stereo not shown) [Compound E3, 2-(2,6-difluorophenyl)-1-(4-(5-(1-(2,3-dihydroxypropoxy)-2-((3,5-dimethylbenzyl)oxy)propan-2-yl)-2-methylpyrimidin-4-yl)piperidin-1-yl)ethanone], the IC50 was 6.2 nM. In the case of Cc1cc(C)cc(COC(C)(CO)c2cnc(C)nc2C2CCN(C(=O)Cc3c(F)cccc3F)CC2)c1 (stereo not shown) [Compound E4, 2-(2,6-difluorophenyl)-1-(4-(5-(2-((3,5-dimethylbenzyl)oxy)-1-hydroxypropan-2-yl)-2-methylpyrimidin-4-yl)piperidin-1-yl)ethanone], the IC50 is reported as 16.7 nM. Work on Cc1cc(C)cc(COC(C)(C)c2cnc(C)nc2C2CCN(C(=O)Cc3c(F)cccc3F)CC2)c1 [Compound E5, 2-(2,6-Difluorophenyl)-1-(4-(5-(2-(3,5-dimethylbenzyloxy)propan-2-yl)-2-methylpyrimidin-4-yl)piperidin-1-yl)ethanone] yielded an IC50 of 10.6 nM. With Cc1ncc(C(C)(C)OCc2cccc(Cl)c2)c(C2CCN(C(=O)Cc3c(F)cccc3F)CC2)n1 [Compound E6, 1-(4-(5-(2-((3-chlorobenzyl)oxy)propan-2-yl)-2-methylpyrimidin-4-yl)piperidin-1-yl)-2-(2,6-difluorophenyl)ethanone] the IC50 was 45.7 nM. With Cc1ncc(C(C)(C)OCc2cccc(Cl)n2)c(C2CCN(C(=O)Cc3c(F)cccc3F)CC2)n1 [Compound E7, 1-(4-(5-(2-((6-chloropyridin-2-yl)methoxy)propan-2-yl)-2-methylpyrimidin-4-yl)piperidin-1-yl)-2-(2,6-difluorophenyl)ethanone] the IC50 was 63 nM. Work on Cc1cc(C)cc(COCc2cnc(C)nc2C2CCN(C(=O)Cc3c(F)cccc3F)CC2)c1 [Compound E10, 2-(2,6-Difluorophenyl)-1-(4-(5-((3,5-dimethylbenzyloxy)methyl)-2-methylpyrimidin-4-yl)piperidin-1-yl)ethanone] yielded an IC50 of 79 nM. Work on Cc1cc(C)cc(COC(C)c2cnc(C)nc2C2CCN(C(=O)Cc3c(F)cccc3F)CC2)c1 (stereo not shown) [Compound E11, 2-(2,6-Difluorophenyl)-1-(4-(5-(1-(3,5-dimethylbenzyloxy)ethyl)-2-methylpyrimidin-4-yl)piperidin-1-yl)ethanone] yielded an IC50 of 19.2 nM. With Cc1ncc(C(C)(F)COc2cccc(C(F)(F)F)n2)c(C2CCN(C(=O)Nc3c(F)cccc3F)CC2)n1 (stereo not shown) [Compound E12, N-(2,6-Difluorophenyl)-4-[5-(1-fluoro-1-methyl-2-{[6-(trifluoromethyl)pyridin-2-yl]oxy}ethyl)-2-methylpyrimidin-4-yl]piperidine-1-carboxamide] the IC50 was 11 nM. Cc1ncc(C(C)(F)COc2cccc(C(F)(F)F)n2)c(C2CCN(C(=O)Nc3c(F)cccc3C(F)(F)F)CC2)n1 (stereo not shown) [Compound E13, 4-[5-(1-Fluoro-1-methyl-2-{[6-(trifluoromethyl)pyridin-2-yl]oxy}ethyl)-2-methylpyrimidin-4-yl]-N-[2-fluoro-6-(trifluoromethyl)phenyl]piperidine-1-carboxamide] was tested, and the IC50 was 13.2 nM. Cc1cc(C)cc(OCC(C)(F)c2cnc(C)nc2C2CCN(C(=O)Cc3c(F)cccc3F)CC2)c1 (stereo not shown) [Compound E14, 4-{1-[(2,6-Difluorophenyl)acetyl]piperidin-4-yl}-5-{2-[(3,5-dimethylphenyl)oxy]-1-fluoro-1-methylethyl}-2-methylpyrimidine] was tested, and the IC50 was 28 nM. Cc1ncc(C(C)(F)CNc2ccnc(C(F)(F)F)n2)c(C2CCN(C(=O)Nc3c(F)cccc3F)CC2)n1 (stereo not shown) [Compound E15, N-(2,6-Difluorophenyl)-4-[5-(1-fluoro-1-methyl-2-{[2-(trifluoromethyl)pyrimidin-4-yl]amino}ethyl)-2-methylpyrimidin-4-yl]piperidine-1-carboxamide] was tested, and the IC50 was 56.5 nM. Work on Cc1ncc(C(C)(C)CNc2ccnc(C(F)(F)F)n2)c(C2CCN(C(=O)Cc3c(F)cccc3F)CC2)n1 [Compound F1, 2-(2,6-Difluorophenyl)-1-(4-(2-methyl-5-(2-methyl-1-(2-(trifluoromethyl)pyrimidin-4-ylamino)propan-2-yl)pyrimidin-4-yl)piperidin-1-yl)ethanone] yielded an IC50 of 76 nM. Cc1ncc(C(C)(C)CNc2nccc(C(F)(F)F)n2)c(C2CCN(C(=O)Cc3c(F)cccc3F)CC2)n1 [Compound F2, 2-(2,6-difluorophenyl)-1-(4-(2-methyl-5-(2-methyl-1-((4-(trifluoromethyl)pyrimidin-2-yl)amino)propan-2-yl)pyrimidin-4-yl)piperidin-1-yl)ethanone] gave an IC50 of 26 nM. In the case of Cc1ncc(C(C)(C)CNc2cccc(C(F)(F)F)n2)c(C2CCN(C(=O)Cc3c(F)cccc3F)CC2)n1 [Compound F3, N-[2-(4-{1-[(2,6-difluorophenyl)acetyl]piperidin-4-yl}-2-methylpyrimidin-5-yl)-2-methylpropyl]-6-(trifluoromethyl)pyridin-2-amine], the IC50 is reported as 3.3 nM. COC(=O)C(C)(CNc1ccnc(C(F)(F)F)n1)c1cnc(C)nc1C1CCN(C(=O)Cc2c(F)cccc2F)CC1 (stereo not shown) [Compound F4, Methyl 2-(4-(1-(2-(2,6-difluorophenyl)acetyl)piperidin-4-yl)-2-methylpyrimidin-5-yl)-2-methyl-3-(2-(trifluoromethyl)pyrimidin-4-ylamino)propanoate] gave an IC50 of 195 nM. Compound Cc1ncc(C(C)(CO)CNc2ccnc(C(F)(F)F)n2)c(C2CCN(C(=O)Cc3c(F)cccc3F)CC2)n1 (stereo not shown) [Compound F5, 2-(2,6-Difluorophenyl)-1-(4-(5-(1-hydroxy-2-methyl-3-(2-(trifluoromethyl)pyrimidin-4-ylamino)propan-2-yl)-2-methylpyrimidin-4-yl)piperidin-1-yl)ethanone] has an IC50 of 101 nM. For Cc1cc(C)cc(CNCc2cnc(C)nc2C2CCN(C(=O)Cc3c(F)cccc3F)CC2)c1 [Compound F6, 2-(2,6-Difluorophenyl)-1-(4-(5-((3,5-dimethylbenzylamino)methyl)-2-methylpyrimidin-4-yl)piperidin-1-yl)ethanone], the IC50 was 44.2 nM. Compound Cc1cc(C)cc(CNC(c2cnc(C)nc2C2CCN(C(=O)Cc3c(F)cccc3F)CC2)C(F)(F)F)c1 (stereo not shown) [Compound F7, 2-(2,6-Difluorophenyl)-1-(4-(5-(1-(3,5-dimethylbenzylamino)-2,2,2-trifluoroethyl)-2-methylpyrimidin-4-yl)piperidin-1-yl)ethanone] has an IC50 of 9.8 nM. With Cc1ncc(C(C)(C)CNc2ccnc(C(F)(F)F)n2)c(C2CCN(C(=O)Nc3c(F)cccc3F)CC2)n1 [Compound F8, N-(2,6-Difluorophenyl)-4-(2-methyl-5-(2-methyl-1-(2-(trifluoromethyl)pyrimidin-4-ylamino)propan-2-yl)pyrimidin-4-yl)piperidine-1-carboxamide] the IC50 was 1340 nM. For Cc1cc(C)cc(CNC(C)c2cnc(C)nc2C2CCN(C(=O)Cc3c(F)cccc3F)CC2)c1 (stereo not shown) [Compound F9, 2-(2,6-Difluorophenyl)-1-(4-(5-(1-(3,5-dimethylbenzylamino)ethyl)-2-methylpyrimidin-4-yl)piperidin-1-yl)ethanone], the IC50 was 29.9 nM. Cc1ncc(C(=O)NNc2cccc(Cl)c2)c(C2CCN(C(=O)Cc3c(F)cccc3F)CC2)n1 [Compound G1, N-(3-Chlorophenyl)-4-(1-(2-(2,6-difluorophenyl)acetyl)piperidin-4-yl)-2-methylpyrimidine-5-carbohydrazide] showed an IC50 of 9.6 nM. O=C(NNc1cccc(Cl)c1)c1cnc(C2CC2)nc1C1CCN(C(=O)Cc2c(F)cccc2F)CC1 [Compound G2, N′-(3-chlorophenyl)-2-cyclopropyl-4-(1-(2-(2,6-difluorophenyl)acetyl)piperidin-4-yl)pyrimidine-5-carbohydrazide] showed an IC50 of 4.6 nM. CCc1ncc(C(=O)NNc2cccc(Cl)c2)c(C2CCN(C(=O)Cc3c(F)cccc3F)CC2)n1 [Compound G3, N′-(3-chlorophenyl)-4-(1-(2-(2,6-difluorophenyl)acetyl)piperidin-4-yl)-2-ethylpyrimidine-5-carbohydrazide] gave an IC50 of 8.1 nM. Work on Cc1nc(C)c(C(=O)NNc2cccc(Cl)c2)c(C2CCN(C(=O)Cc3c(F)cccc3F)CC2)n1 [Compound G4, N′-(3-chlorophenyl)-4-(1-(2-(2,6-difluorophenyl)acetyl)piperidin-4-yl)-2,6-dimethylpyrimidine-5-carbohydrazide] yielded an IC50 of 12.1 nM. For Cc1ncc(C(=O)NOc2cccc(C(F)(F)F)c2)c(C2CCN(C(=O)Cc3c(F)cccc3F)CC2)n1 [Compound H1, 4-{1-[(2,6-Difluorophenyl)acetyl]piperidin-4-yl}-2-methyl-N-{[3-(trifluoromethyl)-phenyl]oxy}pyrimidine-5-carboxamide], the IC50 was 327 nM.
